Laboratory results as given in article PMC11396746, “Stability Evaluation and Pharmacokinetic Profiling of Vepdegestrant in Rodents Using Liquid Chromatography–Tandem Mass Spectrometry” (Molecules, 2024).
Read-outs that look alike come from different tables or passages of the source.

Assays:
[1] = Stability of vepdegestrant in rat plasma under storage conditions (method validation); type: in vitro ADME
Description: The results were within ±15% RE under all storage conditions, including at room temperature for 6 h, after three freeze–thaw cycles, at −20 °C for 4 weeks, and in an autosampler for 24 h after sample preparation.
Stability was tested for vepdegestrant in biological samples at LQC and HQC under specific conditions: Short-term stability at room temperature for 6 h, three freeze–thaw cycles, long-term stability at −20 °C for 4 weeks, and pretreated samples in an autosampler for 24 h. The stability test was performed via five replicates analysis, with the acceptance criteria being an RE within ±15% at LQC and HQC levels.

[2] = Plasma protein binding (PPB) using a rapid equilibrium dialysis device; type: in vitro ADME
Description: Low plasma stability was predicted based on pH stability results. […] In addition, we evaluated the plasma protein binding (PPB) of vepdegestrant using a rapid equilibrium dialysis device. However, the concentration of vepdegestrant in the buffer was below the quantification limit, making it impossible to determine an accurate binding ratio. This phenomenon persisted even when the administered concentration was increased from 2 to 10 µg/mL or when the plasma was diluted up to 100-fold. […] Furthermore, the recovery of vepdegestrant in the plasma after a 4-h incubation was greater than 85%. The unrecovered fraction may result from nonspecific binding to the device and membrane. Further studies should be conducted using alternative methods.

[3] = Pharmacokinetic study in male ICR mice; type: in vivo; conditions: mouse
Description: Twelve healthy male ICR mice (6 weeks old, 27.5–30.5 g) and 10 healthy male Sprague–Dawley (SD) rats (7 weeks old, 195.5–212.0 g) were acquired from Orient Bio Inc. (Seongnam, Republic of Korea) and used for PK studies. The animals were kept in rooms in a temperature range of 20–25 °C, humidity of 40–60%, and a 12-h light/dark cycle. Before the experiment, mice were fasted for 4 h, whereas rats were fasted for 14 h, with only water provided during the fasting period. After 4 h of drug administration, animals were provided with free access to food and water. All animal experiments were approved by the Institutional Animal Care and Use Committee of the Chungnam National University (202310A-CNU-178; Daejeon, Republic of Korea).
For the PK studies in mice, a vepdegestrant dosing solution was prepared using a combination of DMSO, PEG400, and saline (5:25:70, v/v/v). The dosing solution was administered intravenously (IV, 2 mg/kg) through the tail vein or orally (PO, 5 mg/kg) through a gavage needle. The dose volume for both routes was 10 mL/kg. Blood samples (50 μL) were collected via the retro-orbital plexus at 0.05 (IV only), 0.25, 0.5, 1, 2, 4, 8, and 24 h post vepdegestrant administration using heparin-coated microcapillaries. Blood samples were immediately centrifuged at 12,032 g under 25 °C for 5 min, and plasma aliquots (20 μL) were stored at −20 °C until HPLC-MS/MS analysis.
The collected plasma samples from mice or rats (20 µL) were added with IS (20 µL) and ACN (160 µL). Subsequently, the mixture was vigorously mixed for 10 min and centrifuged at 17,054× g under 25 °C for 10 min. An aliquot of the supernatant (100 μL) was taken, and a volume of 5 μL was injected for HPLC-MS/MS analysis. PK parameters were calculated using Phoenix® 8.3 software (Certara L.P., Princeton, NJ, USA), as described previously.

[4] = Metabolic stability in dog liver microsomes; type: in vitro ADME
Description: (§1) The metabolic stability of vepdegestrant was evaluated using liver microsomes obtained from mice, rats, dogs, and humans. Vepdegestrant was dissolved in DMSO to prepare a stock solution with a concentration of 0.1 mM. Microsomes (25 µL) were spiked into PBS (440 µL) and pre-incubated for 5 min. After pre-incubation, vepdegestrant stock solution (5 µL) was added, followed by an NADPH regenerating system (27 µL) to initiate the reaction. The composition of the reaction mixture was as follows: Vepdegestrant (final concentration 1 µM), mouse, rat, dog, human liver microsomes (protein concentration: 1 mg/mL), NADPH regenerating system (final concentrations: 1.3 mM NADP^+, 3.3 mM glucose-6-phosphate, 0.4 U/mL glucose-6-phosphate dehydrogenase, and 3.3 mM magnesium chloride), and PBS (pH 7.4). At 5, 15, 30, and 60 min after starting the reaction, aliquots (50 µL) were taken and added to ice-cold ACN with an IS (200 µL) to terminate the reaction. For the zero-time samples, aliquots were taken before adding NADPH. Subsequently, the mixture was vigorously mixed for 10 min and centrifuged at 17,054 g under 25 °C for 10 min. For analysis, 5 µL of the supernatant was injected into the HPLC-MS/MS system. In addition, the stability of vepdegestrant in rat liver microsomes was assessed in the absence of NADPH or NADPH and microsomes (PBS only). […]

[5] = Metabolic stability in human liver microsomes; type: in vitro ADME
Description: as §1

SMILES: O=C1CC[C@H](N2Cc3cc(N4CCN(CC5CCN(c6ccc([C@@H]7c8ccc(O)cc8CC[C@@H]7c7ccccc7)cc6)CC5)CC4)ccc3C2=O)C(=O)N1 [vepdegestrant, Vepdegestrant]
- Stability in Rat Plasma ([1]; 1 month at −20 °C, nominal 3 ng/mL): 98.83 ± 12.58%
- Stability in Rat Plasma ([1]; 1 month at −20 °C, nominal 900 ng/mL): 104.3 ± 8.5%
- Stability in Rat Plasma ([1]; 6 h at room temperature (25 °C), nominal 3 ng/mL): 100.3 ± 7.1%
- Stability in Rat Plasma ([1]; 6 h at room temperature (25 °C), nominal 900 ng/mL): 99.59 ± 4.12%
- Stability in Rat Plasma ([1]; Freeze–thaw three-cycle (−20 °C → RT), nominal 3 ng/mL): 98.70 ± 7.09%
- Stability in Rat Plasma ([1]; Freeze–thaw three-cycle (−20 °C → RT), nominal 900 ng/mL): 94.98 ± 1.40%
- Stability in Rat Plasma ([1]; Processed sample in 10 °C autosampler for 24 h, nominal 3 ng/mL): 99.86 ± 0.84%
- Stability in Rat Plasma ([1]; Processed sample in 10 °C autosampler for 24 h, nominal 900 ng/mL): 92.18 ± 6.32%
- recovery at 4 h ([2]; plasma in a rapid equilibrium dialysis device, after 4-h incubation in rapid equilibrium dialysis device, read-out: recovery of vepdegestrant in the plasma): > 85%
- fraction unbound at 4 h ([2]; plasma, calculated assuming buffer concentration at the lowest quantifiable limit, actual PPB likely higher): 0.001
- Vd ([3]; male, ICR, plasma, intravenous, 2 mg/kg, read-out: volume of distribution): > 1 L/kg
- Cmax ([3]; male, ICR, plasma, IV 2 mg/kg): 2180 ± 442 ng/mL
- MRT ([3]; male, ICR, plasma, IV 2 mg/kg): 4.61 ± 1.43 h
- Tmax ([3]; male, ICR, plasma, IV 2 mg/kg): 0.05 h
- clearance ([3]; male, ICR, plasma, IV 2 mg/kg): 5.22 mL/min/kg
- half-life ([3]; male, ICR, plasma, IV 2 mg/kg): 3.79 ± 1.15 h
- Vd ([3]; male, ICR, plasma, IV 2 mg/kg, read-out: Vss): 1.43 ± 0.472 L/kg
- Cmax ([3]; male, ICR, plasma, PO 5 mg/kg): 393 ± 133 ng/mL
- MRT ([3]; male, ICR, plasma, PO 5 mg/kg): 5.58 ± 1.34 h
- Tmax ([3]; male, ICR, plasma, PO 5 mg/kg): 1 h
- half-life ([3]; male, ICR, plasma, PO 5 mg/kg): 3.64 ± 1.4 h
- bioavailability ([3]; male, ICR, plasma, PO 5 mg/kg vs IV 2 mg/kg, read-out: BA (oral bioavailability)): 17.9 ± 4.35%
- AUCinf ([3]; IV 2 mg/kg): 6510 ± 1060 ng·h/mL
- AUClast ([3]; IV 2 mg/kg): 6400 ± 1080 ng·h/mL
- AUCinf ([3]; PO 5 mg/kg): 2910 ± 707 ng·h/mL
- AUClast ([3]; PO 5 mg/kg): 2870 ± 704 ng·h/mL
- clearance as % of liver blood flow ([3]; liver blood flow 5.4 L/h/kg): 5.8%
- remaining percentage of unconverted vepdegestrant ([4]; 60 min, 1 μM, with NADPH): 97.1%
- half-life at 1 µM ([4]; beagle, liver microsomes, pH 7.4): 9.85 h
- remaining percentage of unconverted vepdegestrant ([5]; 60 min, 1 μM, with NADPH): 98.3%
- half-life at 1 µM ([5]; liver microsomes, pH 7.4): 13.4 h
